Measurements: patent US10098895B2, “Treatment of symptoms related to neurodegenerative disorders through pharmacological dermal activation of cranial nerves” (GLIA, LLC, priority 2016, dated 2018)
“Also recorded” adds a separate entry of the source.

Columns and labels:
[1] = test system: Parkinson's disease symptoms; test: Example 1: Parkinson's disease patient, dermal application to forehead and ear conchae
Procedure: A person was diagnosed with the early stages of Parkinson's disease in December of 2014. Their symptoms included tremors in the hands, impaired short term memory, slow and uncontrolled rigid movements while walking and eating, and declining ocular blink function. The patient also had dry eyes with hyper-tearing, burning, and itching.
The patient was also treated with progesterone 1% on the forehead initially once daily beginning in March 2015. […] The progesterone was applied as needed for about a year.
Instead of the prescribed regimen, the patient began dermal application of dronabinol 1.25 mg 2 times daily to three sites: (i) the forehead, (ii) the concha of the left ear, and (iii) the concha of the right ear. Each dose of 1.25 mg was divided equally between the three application sites. This treatment regimen began Friday Jun. 10, 2016 concurrent with the discontinuation of rasagiline.
In February 2017, the patient, who suffers from debilitating moderate spinal stenosis, started taking Azilect (rasagiline) and carbidopa-levodopa to improve their walking and flexibility. […] The patient decided that, together with the prescribed medications, they would switch from dronabinol to topical testosterone gel applied to the forehead and ear conchae to see if this would impact their longstanding low testosterone levels.
In March 2017, topical testosterone gel application was instituted as an adjunct to is the prescribed Azilect and carbidopa-levodopa.
The patient voluntarily stopped topical testosterone for 3 weeks in June 2017. […] At the end of 3 weeks, topical testosterone was re-instituted as an adjunct to the prescribed medications.

essential tremor = test: Example 7: essential tremor subject with contact lens discomfort; type: in vivo, human
Procedure: A person developed persistent right hand tremors of a kinetic (non-resting) type that has been continuous over the past 6 years. […] This condition had not worsened over time. […] Initially, their doctor thought that these symptoms were stress related and they have been taking 2.5 mg of escitalopram for over 6 years. […] The subject was not on hormone replacement therapy or any other medication.
Concomitantly, the subject suffered from uncomfortable eyes, with a sticky burning sensation and development of blurred vision after about 5-6 hours of contact lens wear. For the past 3 years, the subject was administered 1% progesterone gel (1 mg per day) by dermal application to the forehead once per night. The progesterone gel prolonged comfortable contact lens wear time with sustained visual acuity from 5-6 hours to greater than 15 hours. […] After 2 years of treatment, the benefits of progesterone dermal application persisted for at least 3 days without treatment. There was no effect of the progesterone on their tremor symptoms.
After allowing for washout of progesterone for 3 days, they began forehead application of 0.5-0.75 mg dronabinol once daily at night.
The dronabinol administration regimen was altered by dividing equally the once daily dose of 0.5-0.75 mg dronabinol between the conchae of the left ear, the conchae of the right ear, and the forehead. […] Comfortable contact lens wear, with ease of insertion and removal, and visual acuity extends for 15 hours or more after dronabinol application.
Contact lens comfort wear duration was greater than 15 hours.
In April 2017, the subject, while still being treated with 1% progesterone applied to the forehead, instituted a once-daily low dose topical testosterone applied to the forehead and ear conchae to determine if doing so would produce a beneficial impact on further tremor reduction and in particular essential tremor triggered by caffeine consumption. […] They stopped the treatment to assess whether the tremor would return to pre-testosterone treatment levels. As of August 2017, the subject is without noticeable tremor. The caffeine trigger for tremor onset, which had been recognized throughout all treatments, has not re-appeared since the completion of the 4-week testosterone treatment. The subject continues on low-dose progesterone 1% applied daily to the forehead as the only treatment.

[2] = test system: ocular discomfort, tear film production, tremor; test: Summary of human examples: onset, duration of efficacy and tolerance; type: in vivo; conditions: progesterone USP 0.5 to 1 mg per dose, aqueous formulation, to the forehead; all human examples
Excerpt: Additional findings are that very small doses in contrast to what is required in systemic delivery are required once or twice daily, but the pharmacological agents must be applied in such a manner, and from specified formulations, so that they penetrate to the epidermis. It is unnecessary to go deeper than the epidermis, or to be absorbed into the blood circulation. Thus there are no blood brain barrier issues. […] The activation appears to be remote and not proximate innervation by the agents themselves. A further finding is that there has been no buildup of tolerance after months and years of use.
All human examples of neurodegenerative disorder, Parkinson's, essential tremor, herpes ophthalmicus and chronic ocular graft-versus-host disease, had ocular discomfort and signs and symptoms that were treated by low dose progesterone USP, 0.5 to 1 mg per dose, applied in an aqueous formulation to the forehead. […] The afferent nerve accessed is CN V trigeminal nerve but the efferent parasympathetic signaling was via CN VII facial nerve and a branch the greater petrosal nerve that synapses in the pterygopalatine ganglion to innervate tear film secretion. […]
Another surprising observation is that the duration of efficacy is at least 12 hours with the easily monitored parameters such as ocular comfort, tear film production, or tremor reduction.

[3] = test system: c-Fos-positive neurons of the spinal trigeminal nucleus; test: Example 10: effect of topical progesterone on neural c-Fos expression in rat brainstem; type: in vivo; conditions: progesterone 1% on the forehead, less than 0.2 mg per dose, two hours later
Procedure: A study was conducted in a rat model using the same formulation of progesterone and the same route of administration as had been used by the individuals in the preceding examples. In the study, 7 rats were treated with progesterone 1% on the forehead, estimated to be less than 0.2 mg per dose, and 6 rats received placebo. Two hours later the animals were perfused and brainstems removed. Brainstem tissues were processed for immunohistochemistry using an anti-c-Fos antibody to identify c-Fos protein in cell nuclei that can be counted to assess the activity of c-Fos-positive neurons. Two regions of the spinal trigeminal nucleus were examined: (i) rostral spinal trigeminal nucleus (Vsp) subnucleus interpolaris/subnucleus caudalis (Vi/Vc) region and (ii) caudal Vsp subnucleus caudalis/cervical 1 (Vc/C1) region. […] The rat model confirmed forehead application of progesterone signaled the neurons responsible for activation of tear film production. Various authors and experiments had confirmed the role of neurons in the rostral subnucleus interpolaris (Vi/Vc) and caudalis (Vc/C1) region of brain stem within the spinal trigeminal nucleus (Vsp), a major termination zone for trigeminal sensory fibers, to innervate the eye. When cFos genes in these neurons are activated, cFos proteins are produced that can be stained to count the number of activated neurons. (Meng et al., 1996; Meng et al., 2013).

chronic ocular GVHD = test: Example 4: chronic ocular GVHD, progesterone 1% to the forehead; type: in vivo, human; conditions: after 4 weeks
Excerpt: A patient with chronic ocular GVHD, upon examination, had numerous ocular surface conditions as well as damaged Meibomian glands and ocular disease behind the eye. There was notable ocular surface disease including no visible production of tear film observed by Tearscope, profuse exudate in eyes, lid sticking, and recurring filamentary keratitis.

[4] = progesterone 0.5% to the concha of both ears

Question: For `CC(=O)[C@H]1CC[C@H]2[C@@H]3CCC4=CC(=O)CC[C@]4(C)[C@H]3CC[C@]12C` [progesterone], which adverse events ([1]; human, in vivo) is on record?
Answer: no adverse events were noted

Question: What about the “ocular symptoms of burning and itching” value ([1]; progesterone 1% on the forehead, initially once daily, then as needed, on oral rasagiline) of the same compound?
Answer: relieved their ocular symptoms of burning and itching

Question: What about the “dry eye disease symptoms” value ([1]; progesterone 1% to the forehead once every week, July 2016 to August 2017) of the same compound?
Answer: fully manage dry eye disease symptoms

Question: And the tremor symptoms (essential tremor; 1% progesterone gel (1 mg per day) to forehead)?
Answer: no effect

Question: What about the “comfortable contact lens wear time with sustained visual acuity” value (essential tremor; 1% progesterone gel (1 mg per day) to forehead once per night, from 5-6 hours before) of the same compound?
Answer: greater than 15 hours

Question: And the “persistence of benefits without treatment” value (essential tremor; after 2 years of progesterone dermal application to forehead)?
Answer: at least 3 days

Question: And the adverse events (essential tremor; human, in vivo)?
Answer: no adverse events

Question: What about the “routine mammography and serum hormone levels” value (essential tremor; human, in vivo) of the same compound?
Answer: normal

Question: What about the “comfortable contact lens wear” value (essential tremor; low dose progesterone 1% to the forehead only, daily, 12 months up to August 2017) of the same compound?
Answer: 15 h

Question: And the “tremor on maintenance treatment” value (essential tremor; maintenance dose of progesterone 1% to forehead after testosterone course)?
Answer: tremor-free

Question: What about the “contact lens comfort wear duration” value (essential tremor; [4]) of the same compound?
Answer: greater than 15 hours

Question: And the hand tremor (essential tremor; [4])?
Answer: subsided to the same degree as it did with dronabinol treatment

Question: And the “duration of ocular comfort per dose” value [2]?
Answer: at least 12 hours

Question: And the “time to ocular comfort and tear film secretion” value [2]?
Answer: within a few minutes

Question: What about the “number of activated (c-Fos-positive) neurons in the Vc/C1 region, compared to placebo” value [3] of the same compound?
Answer: but not the Vc/C1 region

Question: What about the “number of activated (c-Fos-positive) neurons in the Vi/Vc region, compared to placebo” value ([3]; 7 rats vs 6 placebo) of the same compound?
Answer: significantly greater number of activated neurons; also recorded: significant increase in activated neurons

Question: What about the “exudate in both eyes” value (chronic ocular GVHD) of the same compound?
Answer: noticeable decrease in exudate

Question: What about the “lid sticking and friction” value (chronic ocular GVHD) of the same compound?
Answer: improvement in lid sticking and friction

Question: What about the “tear film production by Tearscope” value (chronic ocular GVHD) of the same compound?
Answer: tear film production was observed
